The assay deals with antibodies of the invention (antisera generated in response to the immunogen of Example 4). Description: Competitive chemiluminescent biochip immunoassay, standard curve generation using generated antiserum. The settings on record: for IC50 (standard concentration which produces 50% B/B0): biochip-immobilised IgG fraction of antiserum, hapten-HRP conjugate of Example 5; for % CR (percentage cross-reactivity based on 100% specificity to mitragynine): relative to mitragynine = 100%.

In brackets after ≈: the same amount, converted by molar mass.

As for `CC[C@@H]1CN2CCc3c([nH]c4cccc(OC)c34)[C@H]2C[C@@H]1/C(=C\OC)C(=O)OC` (stereo in doubt) [Mitragynine, (E)-2-[(2S,3S,12bS)-3-ethyl-8-methoxy-1,2,3,4,6,7,12,12b-octahydroindolo[2,3-a]quinozilizin-2-yl]-3-methoxy propenoic acid methyl ester], the “IC50 (standard concentration which produces 50% B/B0)” value came to 1.193 ng/mL (≈ 2.99 nM) and the “% CR (percentage cross-reactivity based on 100% specificity to mitragynine)” value was determined as 100.00%. In addition, the B/Bo (calibrator 0.313 ng/ml) was determined as 75%. Besides, under “calibrator 0.625 ng/ml”, the B/Bo turned out to be 63%. For the same compound, for the setting “calibrator 1.250 ng/ml”, the B/Bo turned out to be 49%. The compound further returned a B/Bo (calibrator 2.500 ng/ml) of 37%. Further, the B/Bo (calibrator 5.000 ng/ml) amounted to 25%. This compound also had a B/Bo (calibrator 10.000 ng/ml) of 17%. Under “calibrator 20.000 ng/ml”, the B/Bo worked out at 11%.

`CCC1CN2CCc3c([nH]c4cccc(O)c34)C2CC1C(=COC)C(=O)OC` [8-Desmethylmitragynine, (E)-2-[(2S,3S,12bS)-3-ethyl-8-hydroxy-1,2,3,4,6,7,12,12b-octahydroindolo[2,3-a]quinozilizin-2-yl]-3-methoxy propenoic acid methyl ester]: the “IC50 (standard concentration which produces 50% B/B0)” value worked out at 1.532 ng/mL (≈ 3.98 nM) and the “% CR (percentage cross-reactivity based on 100% specificity to mitragynine)” value came to 77.87%. This compound came in with a B/Bo (calibrator 0.313 ng/ml) of 74%. The compound also registered a B/Bo (calibrator 0.625 ng/ml) of 63%. The compound also came in with a B/Bo (calibrator 1.250 ng/ml) of 54%. This compound also had a B/Bo (calibrator 2.500 ng/ml) of 42%. This compound displayed a B/Bo (calibrator 5.000 ng/ml) of 29%. The B/Bo (calibrator 10.000 ng/ml) stood at 18%. The B/Bo (calibrator 20.000 ng/ml) worked out at 13%.

For the origin of these results see US9952206B2, “Immunoassay for detecting kratom, its constituents and their use” (Randox Laboratories Limited, priority 2013, dated 2018).
